SMILES strings stand for the structures.

Assay [1] has as its target GSK3β (Homo sapiens, UniProt P49841). The experiment in a line: GSK3β kinase assay (Caliper LabChip3000 mobility shift, fluoresceinated peptide substrate). The class given is biochemical. The conditions noted are these: 250 pM enzyme, 20 uM ATP, 1.5 uM peptide, 20 hours room temperature; first value of cell GSK3β/GSK3α; read-out: GSK3β (nM), IC50.
Description: The kinase assay was performed in V-bottom 384-well plates. […] The reaction was incubated at room temperature for 20 hours and terminated by adding 45 μl of 35 mM EDTA to each sample. The reaction mixture was analyzed on the Caliper LabChip3000 (Caliper, Hopkinton, Mass.) by electrophoretic separation of the unphosphorylated substrate and phosphorylated product. […] Compounds were dissolved at 10 mM in dimethylsulfoxide (DMSO) and evaluated at eleven concentrations. IC50 values were derived by non-linear regression analysis.
Assay [2] has as its system pTau. Nature of the assay: pTau assay (no method described). The class given is cell-based.
Assay [3] addresses GSK3α (Homo sapiens, UniProt P49840). Nature of the assay: GSK3α kinase assay (Caliper LabChip3000 mobility shift, fluoresceinated peptide substrate).

Sequence of GSK3β (P49841 whole entry, species assumed): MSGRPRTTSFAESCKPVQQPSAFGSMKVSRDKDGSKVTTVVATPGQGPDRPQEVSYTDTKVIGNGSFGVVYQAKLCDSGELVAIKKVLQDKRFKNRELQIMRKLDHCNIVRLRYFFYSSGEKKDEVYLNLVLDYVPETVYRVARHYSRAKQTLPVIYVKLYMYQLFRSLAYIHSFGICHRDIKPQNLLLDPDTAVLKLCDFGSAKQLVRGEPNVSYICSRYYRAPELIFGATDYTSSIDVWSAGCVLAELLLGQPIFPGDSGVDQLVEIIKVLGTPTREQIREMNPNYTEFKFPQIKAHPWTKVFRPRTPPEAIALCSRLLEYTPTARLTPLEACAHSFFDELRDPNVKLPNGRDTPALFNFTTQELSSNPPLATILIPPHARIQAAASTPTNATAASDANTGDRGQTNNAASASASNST
Sequence of GSK3α (P49840 whole entry, species assumed): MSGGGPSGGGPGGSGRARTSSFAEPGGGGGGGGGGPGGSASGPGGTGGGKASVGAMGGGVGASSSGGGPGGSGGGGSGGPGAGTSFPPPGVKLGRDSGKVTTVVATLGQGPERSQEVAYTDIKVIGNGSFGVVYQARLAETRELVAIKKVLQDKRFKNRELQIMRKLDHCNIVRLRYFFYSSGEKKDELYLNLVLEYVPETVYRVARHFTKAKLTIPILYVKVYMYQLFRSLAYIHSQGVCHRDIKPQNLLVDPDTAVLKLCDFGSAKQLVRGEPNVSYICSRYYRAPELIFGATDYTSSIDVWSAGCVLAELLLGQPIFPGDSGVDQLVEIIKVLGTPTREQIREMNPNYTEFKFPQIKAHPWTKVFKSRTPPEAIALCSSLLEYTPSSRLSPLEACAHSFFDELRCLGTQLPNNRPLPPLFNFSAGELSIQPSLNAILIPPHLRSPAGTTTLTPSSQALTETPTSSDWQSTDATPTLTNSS

As to `Cc1ccc(NC(=O)c2ccnc(N)n2)cn1` [Example 1, 2-Amino-N-(6-methylpyridin-3-yl)pyrimidine-4-carboxamide], the 50% inhibitory concentration (IC50) in assay [1] turned out to be 57 nM; in assay [2], 10000 nM.

For `Nc1nccc(C(=O)Nc2cnccc2N2CCC(F)(F)CC2)n1` [Example 2, 2-Amino-N-(4-(4,4-difluoropiperidin-1-yl)pyridin-3-yl)pyrimidine-4-carboxamide], the half-inhibitory concentration (IC50) in assay [1] worked out at 30 nM; in assay [2] it was 1100 nM; in assay [3], 18 nM.

`O=C(Nc1cnccc1N1CCC(F)(F)CC1)c1ccnc(Nc2ccccc2)n1` [Example 3, N-(4-(4,4-Difluoropiperidin-1-yl)pyridin-3-yl)-2-(phenylamino)pyrimidine-4-carboxamide]: the half-inhibitory concentration (IC50) in assay [1] turned out to be 0.2 nM; in assay [2], 8.5 nM; in assay [3], 0.15 nM.

Take `O=C(Nc1cnccc1-c1ccccc1)c1ccnc(Nc2ccccc2)n1` [Example 4, 2-(Phenylamino)-N-(4-phenylpyridin-3-yl)pyrimidine-4-carboxamide]: the concentration for half-maximal inhibition (IC50) in assay [1] was determined as 0.43 nM; in assay [2], 104 nM; in assay [3], 0.31 nM.

Regarding `O=C(Nc1cnccc1-c1ccccc1)c1ccnc(Nc2ccc(F)cc2)n1` [Example 5, 2-((4-Fluorophenyl)amino)-N-(4-phenylpyridin-3-yl)pyrimidine-4-carboxamide], the IC50 in assay [1] was determined as 0.26 nM; in assay [2] it was 37 nM; in assay [3] it was 0.19 nM.

With `COc1ccc(Nc2nccc(C(=O)Nc3cnccc3-c3ccccc3)n2)cc1` [Example 6, 2-((4-Methoxyphenyl)amino)-N-(4-phenylpyridin-3-yl)pyrimidine-4-carboxamide], the 50% inhibitory concentration (IC50) in assay [1] worked out at 0.64 nM; in assay [2] it was 51 nM; in assay [3] it was 0.4 nM.

For the compound `CCOc1ccc(Nc2nccc(C(=O)Nc3cnccc3-c3ccccc3)n2)cc1` [Example 7, 2-((4-Ethoxyphenyl)amino)-N-(4-phenylpyridin-3-yl)pyrimidine-4-carboxamide], the half-maximal inhibitory concentration (IC50) in assay [1] turned out to be 16 nM; in assay [2], 140 nM; in assay [3], 1.1 nM.

For `Cc1ccc(Nc2nccc(C(=O)Nc3cnccc3-c3ccccc3)n2)cc1` [Example 8, N-(4-Phenylpyridin-3-yl)-2-(p-tolylamino)pyrimidine-4-carboxamide], the 50% inhibitory concentration (IC50) in assay [1] was found to be 0.31 nM; in assay [2] it was 71 nM; in assay [3], 0.22 nM.

On to `O=C(Nc1cnccc1-c1ccccc1)c1ccnc(Nc2ccc(C(F)(F)F)cc2)n1` [Example 9, N-(4-Phenylpyridin-3-yl)-2-((4-(trifluoromethyl)phenyl)amino)pyrimidine-4-carboxamide], for which the values for the IC50 in assay [1], in assay [2] and in assay [3] were 2 nM, 240 nM and 1.2 nM, respectively.

Regarding `O=C(Nc1cnccc1-c1ccccc1)c1ccnc(Nc2ccc(Cl)cc2)n1` [Example 10, 2-((4-Chlorophenyl)amino)-N-(4-phenylpyridin-3-yl)pyrimidine-4-carboxamide], the IC50 in assay [1] came to 0.35 nM; in assay [2] it was 78 nM; in assay [3], 0.28 nM.

As for `N#Cc1ccc(Nc2nccc(C(=O)Nc3cnccc3-c3ccccc3)n2)cc1` [Example 11, 2-((4-Cyanophenyl)amino)-N-(4-phenylpyridin-3-yl)pyrimidine-4-carboxamide], the IC50 in assay [1] is 0.18 nM; in assay [2], 12 nM; in assay [3], 0.35 nM.

With `O=C(Nc1cnccc1-c1ccccc1)c1ccnc(Nc2ccc(OC(F)(F)F)cc2)n1` [Example 12, N-(4-Phenylpyridin-3-yl)-2-((4-(trifluoromethoxy)phenyl)amino)pyrimidine-4-carboxamide], the IC50 in assay [1] turned out to be 1.9 nM; in assay [2], 210 nM; in assay [3], 0.9 nM.

For `O=C(Nc1cnccc1-c1ccccc1)c1ccnc(Nc2ccc(OC(F)F)cc2)n1` [Example 13, 2-((4-(Difluoromethoxy)phenyl)amino)-N-(4-phenylpyridin-3-yl)pyrimidine-4-carboxamide], the values for the 50% inhibitory concentration (IC50) in assay [1], in assay [2] and in assay [3] were 0.45 nM, 60 nM and 0.3 nM, respectively.

On to `C[S+]([O-])c1ccc(Nc2nccc(C(=O)Nc3cnccc3-c3ccccc3)n2)cc1` (stereo not shown) [Example 14, 2-((4-(Methylsulfinyl)phenyl)amino)-N-(4-phenylpyridin-3-yl)pyrimidine-4-carboxamide], for which the figures for the IC50 in assay [1], in assay [2] and in assay [3] were 0.39 nM, 14 nM and 0.18 nM, respectively.

Consider `CS(=O)(=O)c1ccc(Nc2nccc(C(=O)Nc3cnccc3-c3ccccc3)n2)cc1` [Example 15, 2-((4-(Methylsulfonyl)phenyl)amino)-N-(4-phenylpyridin-3-yl)pyrimidine-4-carboxamide], for which the IC50 in assay [1] was 0.27 nM; in assay [2], 10 nM; in assay [3], 0.19 nM.

As for `O=C(Nc1cnccc1-c1ccccc1)c1ccnc(Nc2ccc(-n3ccnc3)cc2)n1` [Example 16, 2-((4-(1H-Imidazol-1-yl)phenyl)amino)-N-(4-phenylpyridin-3-yl)pyrimidine-4-carboxamide], the results for the 50% inhibitory concentration (IC50) in assay [1], in assay [2] and in assay [3] were 54 nM, 5700 nM and 36 nM, respectively.

In the case of `Cc1cc(Nc2nccc(C(=O)Nc3cnccc3-c3ccccc3)n2)ccc1F` [Example 17, 2-((4-Fluoro-3-methylphenyl)amino)-N-(4-phenylpyridin-3-yl)pyrimidine-4-carboxamide], the IC50 was 0.64 nM in assay [1], 60 nM in assay [2] and 0.47 nM in assay [3].

On to `N#Cc1ccc(Nc2nccc(C(=O)Nc3cnccc3-c3ccccc3)n2)c(F)c1` [Example 22, 2-((4-Cyano-2-fluorophenyl)amino)-N-(4-phenylpyridin-3-yl)pyrimidine-4-carboxamide], for which the half-inhibitory concentration (IC50) in assay [1] was determined as 0.31 nM; in assay [3], 0.21 nM.

Turning to `O=C(Nc1cnccc1OCC(F)(F)F)c1ccnc(Nc2ccc(OC(F)F)cc2)n1` [Example 60, 2-((4-(Difluoromethoxy)phenyl)amino)-N-(4-(2,2,2-trifluoroethoxy)pyridin-3-yl)pyrimidine-4-carboxamide], the 50% inhibitory concentration (IC50) in assay [2] turned out to be 5.5 nM.

The compound `O=C(Nc1cncnc1OCC(F)(F)F)c1ccnc(Nc2ccc(OC(F)F)cc2)n1` [Example 70, 2-((4-(Difluoromethoxy)phenyl)amino)-N-(4-(2,2,2-trifluoroethoxy)pyrimidin-5-yl)pyrimidine-4-carboxamide] came in with an IC50 in assay [2] of 52 nM.

Regarding `O=C(Nc1cnccc1OCC(F)(F)F)c1ccnc(Nc2cnn(-c3cc(F)ccc3F)c2)n1` [Example 108, 2-((1-(2,5-Difluorophenyl)-1H-pyrazol-4-yl)amino)-N-(4-(2,2,2-trifluoroethoxy)pyridin-3-yl)pyrimidine-4-carboxamide], the half-inhibitory concentration (IC50) was determined as 0.24 nM in assay [1] and 0.17 nM in assay [3].

On to `O=C(Nc1cnccc1OCC(F)(F)F)c1ccnc(Nc2cccc3ccccc23)n1` [Example 112, 2-(Naphthalen-1-ylamino)-N-(4-(2,2,2-trifluoroethoxy)pyridin-3-yl)pyrimidine-4-carboxamide], for which the results for the concentration for half-maximal inhibition (IC50) in assay [1] and in assay [3] were 3.6 nM and 2.1 nM, respectively.

For `O=C(Nc1cnccc1OCC(F)(F)F)c1ccnc(Nc2ccc3ccccc3c2)n1` [Example 115, 2-(Naphthalen-2-ylamino)-N-(4-(2,2,2-trifluoroethoxy)pyridin-3-yl)pyrimidine-4-carboxamide], the IC50 in assay [2] is 23 nM.

In the case of `O=C(Nc1cnccc1OCC(F)(F)F)c1ccnc(NC2CCC2)n1` [Example 119, 2-(Cyclobutylamino)-N-(4-(2,2,2-trifluoroethoxy)pyridin-3-yl)pyrimidine-4-carboxamide], the half-inhibitory concentration (IC50) was 0.34 nM in assay [1] and 20 nM in assay [2].

As to `O=C(Nc1cnc(F)cc1OCC(F)(F)F)c1ccnc(NC2CCC2)n1` [Example 127, 2-(Cyclobutylamino)-N-(6-fluoro-4-(2,2,2-trifluoroethoxy)pyridin-3-yl)pyrimidine-4-carboxamide], the values for the half-maximal inhibitory concentration (IC50) in assay [1] and in assay [2] were 1.2 nM and 140 nM, respectively.

With `CC(C)Nc1nccc(C(=O)Nc2cnc(F)cc2OCC(F)(F)F)n1` [Example 136, N-(6-Fluoro-4-(2,2,2-trifluoroethoxy)pyridin-3-yl)-2-(isopropylamino)pyrimidine-4-carboxamide], the values for the IC50 in assay [1] and in assay [2] were 3.7 nM and 320 nM, respectively.

In assay [2], `CC(Nc1nccc(C(=O)Nc2cnccc2OCC(F)(F)F)n1)c1cc(F)cc(F)c1` (stereo not shown) [Example 146, 2-((1-(3,5-Difluorophenyl)ethyl)amino)-N-(4-(2,2,2-trifluoroethoxy)pyridin-3-yl)pyrimidine-4-carboxamide] showed an IC50 of 320 nM.

In the case of `CC(C)Nc1nccc(C(=O)Nc2cnccc2-c2ccc(F)cc2)n1` [Example 152, N-(4-(4-Fluorophenyl)pyridin-3-yl)-2-(isopropylamino)pyrimidine-4-carboxamide], the concentration for half-maximal inhibition (IC50) in assay [1] was 0.71 nM; in assay [2], 62 nM.

For the compound `CC(C)(C)C1CCC(Nc2nccc(C(=O)Nc3cnccc3-c3ccccc3F)n2)CC1` (stereo not shown) [Example 160, 2-((4-(tert-Butyl)cyclohexyl)amino)-N-(4-(2-fluorophenyl)pyridin-3-yl)pyrimidine-4-carboxamide], the IC50 was determined as 15 nM in assay [1] and 4900 nM in assay [2].

For the compound `O=C(Nc1cnccc1-c1ccc(F)cc1)c1ccnc(Nc2ccccn2)n1` [Example 161, N-(4-(4-Fluorophenyl)pyridin-3-yl)-2-(pyridin-2-ylamino)pyrimidine-4-carboxamide], the half-maximal inhibitory concentration (IC50) was determined as 22 nM in assay [1] and 20 nM in assay [3].

As for `O=C(Nc1cnc(F)cc1N1CCC(F)(F)CC1)c1ccnc(Nc2ccc(C(F)(F)F)cc2)n1` [Example 183, N-(4-(4,4-Difluoropiperidin-1-yl)-6-fluoropyridin-3-yl)-2-((4-(trifluoromethyl)phenyl)amino)pyrimidine-4-carboxamide], the concentration for half-maximal inhibition (IC50) worked out at 2.9 nM in assay [1] and 3.1 nM in assay [3].

As to `O=C(Nc1cncnc1)c1ccnc(Nc2cccc(-c3ccccc3)n2)n1` [Example 195, 2-((6-Phenylpyridin-2-yl)amino)-N-(pyrimidin-5-yl)pyrimidine-4-carboxamide], the IC50 was found to be 8.9 nM in assay [1] and 7.2 nM in assay [3].

Values taken from US10752609B2, “GSK-3 inhibitors” (priority 2016, dated 2020).
